Test results reported in patent publication US11980596B2 (priority 2017, dated 2024).

Test system: patients with treatment-resistant depression (TRD)
Test: Adverse events (Example 7)
Type: in vivo, human
Conditions: double-blind
Protocol: Adverse events were monitored throughout the study. Other safety assessments (i.e., laboratory tests, vital signs, physical examination) were performed at pre-specified time points. Vital signs, the Clinician Administered Dissociative States Scale (CADSS; Bremner, “Measurement of dissociative states with the clinician-administered dissociative states scale (CADSS)”, J. Traumatic Stress, 1998, 11(1):125-136), and the 4-item positive symptom subscale from the Brief Psychiatric Rating Scale (BPRS; Overall, “The Brief Psychiatric Rating Scale. Psychological Reports”, 1962, 10:799-812) were assessed pre-dose, at 40 minutes, and 2 hours post-dose.
Safety data were analyzed in Period 1, Period 2, double-blind, and open-label data sets, for all subjects receiving at least 1 dose of study medication.

## CN[C@]1(c2ccccc2Cl)CCCCC1=O [esketamine, (S)-2-(2-chlorophenyl)-2-(methylamino)cyclohexanone]
Esketamine 28 mg, N = 19
  Dissociation, number of participants: 0
  Dissociative disorder, % of participants: (11) %
  Dissociative disorder, number of participants: 2
  Dizziness, % of participants: (21) %
  Dizziness, number of participants: 4
  Dysgeusia, % of participants: (11) %
  Dysgeusia, number of participants: 2
  Feeling abnormal, % of participants: (11) %
  Feeling abnormal, number of participants: 2
  Headache, % of participants: (32) %
  Headache, number of participants: 6
  Hypersomnia, % of participants: (11) %
  Hypersomnia, number of participants: 2
  Hypertension, number of participants: 0
  Hypoesthesia oral, % of participants: (5) %
  Hypoesthesia oral, number of participants: 1
  Insomnia, number of participants: 0
  Nasal discomfort, number of participants: 0
  Nausea, % of participants: (11) %
  Nausea, number of participants: 2
  Oropharyngeal pain, number of participants: 0
  Polyuria, number of participants: 0
  Sedation, % of participants: (5) %
  Sedation, number of participants: 1
  Throat irritation, % of participants: (5) %
  Throat irritation, number of participants: 1
  Total with events, % of participants: (58) %
  Total with events, number of participants: 11
  Tunnel vision, number of participants: 0
  Vertigo, % of participants: (11) %
  Vertigo, number of participants: 2
  Vision blurred, number of participants: 0
Esketamine 56 mg, N = 20
  Dissociation, % of participants: (35) %
  Dissociation, number of participants: 7
  Dissociative disorder, % of participants: (5) %
  Dissociative disorder, number of participants: 1
  Dizziness, % of participants: (40) %
  Dizziness, number of participants: 8
  Dysgeusia, % of participants: (15) %
  Dysgeusia, number of participants: 3
  Feeling abnormal, % of participants: (5) %
  Feeling abnormal, number of participants: 1
  Headache, % of participants: (15) %
  Headache, number of participants: 3
  Hypersomnia, number of participants: 0
  Hypertension, % of participants: (10) %
  Hypertension, number of participants: 2
  Hypoesthesia oral, % of participants: (20) %
  Hypoesthesia oral, number of participants: 4
  Insomnia, % of participants: (10) %
  Insomnia, number of participants: 2
  Nasal discomfort, % of participants: (10) %
  Nasal discomfort, number of participants: 2
  Nausea, % of participants: (20) %
  Nausea, number of participants: 4
  Oropharyngeal pain, % of participants: (5) %
  Oropharyngeal pain, number of participants: 1
  Polyuria, % of participants: (10) %
  Polyuria, number of participants: 2
  Sedation, % of participants: (10) %
  Sedation, number of participants: 2
  Throat irritation, number of participants: 0
  Total with events, % of participants: (80) %
  Total with events, number of participants: 16
  Tunnel vision, number of participants: 0
  Vertigo, % of participants: (5) %
  Vertigo, number of participants: 1
  Vision blurred, number of participants: 0
Esketamine 84 mg, N = 17
  Dissociation, % of participants: (24) %
  Dissociation, number of participants: 4
  Dissociative disorder, % of participants: (24) %
  Dissociative disorder, number of participants: 4
  Dizziness, % of participants: (47) %
  Dizziness, number of participants: 8
  Dysgeusia, % of participants: (29) %
  Dysgeusia, number of participants: 5
